Consider two compounds from article PMC8113758, “Functional Characterization of Sex Pheromone Neurons and Receptors in the Armyworm, Mythimna separata (Walker)” (Frontiers in Neuroanatomy, 2021).

What all share (test): two-electrode voltage clamp, Xenopus oocytes, dose-response
Type in all cases: cell-based, Mythimna separata
(In general: Two-electrode voltage clamp is typically applied to oocytes expressing channels or transporters.)

Test [1] has as its system T1, MsepPR6.
T1 construct: full-length; with MsepOrco

For test [2], the system named is T2, MsepPR1.
T2 construct: full-length; with MsepOrco

Test [3] deals with T3, MsepPR5.
T3 construct: full-length; with MsepOrco

In test [1], `CCCC/C=C\CCCCCCCCOC(C)=O` [Z9–14:OAc, (Z)-9-tetradecen-1-yl acetate] came in with an EC50 of 0.746 µM.

Take `CCCC/C=C\CCCCCCCC=O` [Z9–14:Ald, (Z)-9-tetradecenal]: the EC50 in test [2] came to 49 µM; in test [3], 30.4 µM.

One may read the EC50 as the concentration that produces a half-maximal response.
